Legend:
ds(AAATTT) being a dsDNA = conditions: conventional fluorescent ds probe, comparison value, read-out: dissociation constant; cited from earlier work
fixed HeLa cells = test: Competition experiment with Hoechist 33258 using fixed HeLa cells; assay type: cell-based; conditions: Hoechist 33258 0-6.0 μM with compound 10 (6 μM) in PBS
Procedure: In a ninth experiment, a competition experiment with Hoechist 33258 was performed using fixed HeLa cells. As the staining liquid, one obtained by causing Hoechist 33258 at an arbitrary concentration (0 μM, 1.5 μM, 3.0 μM, 6.0 μM) to coexist in a PBS solution of the compound 10 (6 μM) was used, and the experiment was performed according to an operation similar to that in the fourth experiment. […] In FIG. 27, “Ph” is a phase contrast observation image of cells at each concentration of Hoechist 33258. “Hoe” is a 460 nm fluorescence image at each concentration of Hoechist 33258. The fluorescence wavelength of Hoechist 33258 is 460 nm. “600 nm” is a 600 nm fluorescence image. “700 nm” is a 700 nm fluorescence image. “600 nm/700 nm” is a synthesized image of “600 nm” and “700 nm”. “Magnified 600 nm/700 nm” is a magnified image of “600 nm/700 nm”.

living HeLa cells = test: Competition experiment with Hoechist 33258 using living HeLa cells; assay type: cell-based; conditions: Hoechist 33258 0-20 μM with compound 10 (1 μM) in 5% glucose
Procedure: In a tenth experiment, a competition experiment with Hoechist 33258 was performed using living HeLa cells. As the staining liquid, one obtained by causing Hoechist 33258 at an arbitrary concentration (0 μM, 5.0 μM, 10 μM, 20 μM) to coexist in a 5% glucose solution of the compound 10 (1 μM) was used, and the experiment was performed according to an operation similar to that in the sixth experiment. […] In FIG. 28, “600 nm” is a 600 nm fluorescence image. “700 nm” is a 700 nm fluorescence image. “Hoe” is a 460 nm fluorescence image at each concentration of Hoechist 33258. “Merged” is a synthesized image of “600 nm”, “700 nm”, and “Hoe”.

[1] = system: viable cells (HeLA, A549, HEK293, MRC-5); test: Tracking of quadruplex nucleic acid formation in viable cells stained by compound 10 (response to PDS); assay type: cell-based; conditions: PDS 20 μM added to viable cells stained by compound 10 (1 μM)
Procedure: In the seventh experiment, pyridostatin (PDS: 20 μM) was added to viable cells stained by the same method as that in the sixth experiment and temporal change of a fluorescence image thereafter was observed. Pyridostatin (PDS) is a reagent for stabilizing quadruplex nucleic acids. FIG. 24 and FIG. 25 show the result of the seventh experiment.
In FIG. 25 as well, a case where PDS was added to the viable cells stained by the compound 10 was indicated with PDS (+), and a case where PDS was not added was indicated with PDS (−). In FIG. 25, the vertical axis represents intensity ratio between 600 nm fluorescence and 700 nm fluorescence, and the horizontal axis represents time after addition of PDS.

C[n+]1c(/C=C/c2ccc(O)c(/C=C/c3sc4ccccc4[n+]3C)c2)sc2ccccc21 [QCy-DT, quinone cyanine-dithiazole]
Kd (ds(AAATTT) being a dsDNA): ~0.67 µM

CN1CCN(c2ccc3[nH]c(-c4ccc5[nH]c(-c6ccc(O)cc6)nc5c4)nc3c2)CC1 [Hoechist 33258]
600 nm fluorescence intensity of compound 10 with increasing Hoechist 33258 concentration (fixed HeLa cells): significantly decreased | 600 nm fluorescence intensity of compound 10 with increasing Hoechist 33258 concentration (living HeLa cells): significantly decreased

NCCOc1cc(C(=O)Nc2cc(OCCN)c3ccccc3n2)nc(C(=O)Nc2cc(OCCN)c3ccccc3n2)c1 [PDS, Pyridostatin]
intensity ratio of 700 nm fluorescence to 600 nm fluorescence [1]: increased

— patent US20240301472A1, “NUCLEIC ACID DETECTION METHOD, COMPOUND AND FLUORESCENT PROBE” (WAKAYAMA UNIVERSITY, priority 2020, published 2024)
